Consider 36 molecules from patent US8637516B2 (IRM LLC, priority 2010, dated 2014).

Assay [1] concerns the target T1, Ba/F3 cells transformed with human Tel-TrkA (Homo sapiens, UniProt P04629).
T1 construct: expressed in transfected cells; host or cells: Ba/F3 murine hematopoietic progenitor cells (luciferase expressing); the other entry of the earlier key: ETV6 (P41212, Transcription factor ETV6)
The experiment in a line: Proliferation of Ba/F3 cells transformed with human Tel-TrkA (Ba/F3 Tel-TrkA). Type of assay: cell-based. The note with it: Table 1; 48 hours, Bright Glo luminescence; read-out: Ba/F3 Tel-TrkA. An excerpt: (§1) Compound dilutions were made in 384 well plates.
(§2) The emited luminiscence is quantified using ViewLux (PerkinElmer).

The test system of the next assay is parental Ba/F3 cells. The experiment in a line: Proliferation of parental (untransformed, wt) Ba/F3 cells (BAF3/WT). Type of assay: cell-based, murine. The following applies: Mus musculus, Table 1, parental cells with IL3, 48 hours. The procedure: as §1
Compounds were tested for their ability to inhibit the proliferation of wt Ba/F3 cells and Ba/F3 cells transformed with constitutively expressed luciferase reporter and BCR-ABL or Tel-FMS or other Tel fusion kinases (EGFR, JAK2, ALK, BMX, FGFR3, FGFR4, FGR2, FLT1, FLT3, IGF1R, INSR, KDR, KIT, LCK, LYN, MEK, MET, PDGFRα, PDGFRβ, RET, RON, ROS, SRC, SYK, TIE and TYRO) or BRafV600E. Parental Ba/F3 cells were maintained in media containing recombinant mouse IL3 and the kinase transformed Ba/F3 cells were maintained in media without IL-3. 7.5 nl of compounds were spotted to each well of 1536-well assay plates by Liquid handling System Echo 555 (Labcyte). 700 cells were then plated into each well of the assay plates in 7 uL culture media per well and compounds were tested at 0.17 nM to 10 uM in 3-fold serial dilutions. The cells were then incubated for 48 hours at 37° C. 3 uL of Bright-Glo® (Promega) was added to each well and the plates were read using ViewLux (PerkinElmer).
as §2

SMILES strings stand for the structures. Some results are limits rather than exact numbers.

T1 sequence (P04629 510-796 limits assumed): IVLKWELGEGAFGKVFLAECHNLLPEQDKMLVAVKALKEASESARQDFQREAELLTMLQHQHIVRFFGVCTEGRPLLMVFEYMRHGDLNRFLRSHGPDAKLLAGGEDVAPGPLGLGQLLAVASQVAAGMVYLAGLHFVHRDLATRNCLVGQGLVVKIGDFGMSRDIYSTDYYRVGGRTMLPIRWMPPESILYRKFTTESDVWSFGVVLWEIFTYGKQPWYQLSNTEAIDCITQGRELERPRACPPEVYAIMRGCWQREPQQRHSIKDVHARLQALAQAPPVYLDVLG

For `O=C(NC1CCOCC1)c1cnc2ccc(N3CCC[C@@H]3c3cccc(F)c3)nn12` [X-93], the IC50 in assay [1] is 0.01 µM; with parental Ba/F3 cells, > 10 µM.
On to `CS(=O)(=O)N1CC[C@H](NC(=O)c2cnc3ccc(N4CCC[C@@H]4c4cccc(F)c4)nn23)C1` [X-30], for which the IC50 is 0.031 µM in assay [1] and > 10 µM with parental Ba/F3 cells.
The matching figures for `[2H]C1(c2cccc(F)c2)CCCN1c1ccc2ncc(C(=O)OCC)n2n1` (centres unmarked) [X-162]: 0.08 µM and > 10 µM.
The corresponding values for `NC(=O)c1cnc2ccc(N3CCC[C@@H]3c3cccc(F)c3)nn12` [X-6] are 0.051 µM and > 10 µM.
The corresponding values for `O=C(NCCCl)Nc1cnc2ccc(N3CCC[C@H]3c3cccc(F)c3)nn12` [X-209] are 0.252 µM and > 10 µM.
Turning to `CCOC(=O)c1cnc2ccc(N3CCCCC3c3cccc(F)c3)nn12` (centres unmarked) [X-156, ethyl 6-(2-(3-fluorophenyl)piperidin-1-yl)imidazo[1,2-b]pyridazine-3-carboxylate], the IC50 in assay [1] was 0.093 µM; in the assay on parental Ba/F3 cells, > 10 µM.
The matching figures for `NNC(=O)c1cnc2ccc(N3CCC[C@@H]3c3cccc(F)c3)nn12` [X-155]: 0.242 µM and > 10 µM.
The corresponding values for `O=C(NCCC1CCCCC1)c1cnc2ccc(N3CCC[C@@H]3c3cccc(F)c3)nn12` [X-91] are 0.289 µM and 6.16 µM.
The corresponding values for `CC(C)(Cc1ccc(F)cc1)NC(=O)c1cnc2ccc(N3CCC[C@@H]3c3cccc(F)c3)nn12` [X-41] are 0.527 µM and 9 µM.
`CC(=O)OC(C)(C)C(=O)Nc1cnc2ccc(N3CCC[C@@H]3c3cccc(F)c3)nn12` [X-188]: the IC50 in assay [1] is 0.046 µM; in the assay with parental Ba/F3 cells, > 10 µM.
The corresponding values for `CCONC(=O)c1cnc2ccc(N3CCCC3c3cccc(F)c3)nn12` (centres unmarked) [X-152, N-ethoxy-6-(2-(3-fluorophenyl)pyrrolidin-1-yl)imidazo[1,2-b]pyridazine-3-carboxamide] are 0.042 µM and > 10 µM.
The matching figures for `NC(=NO)c1cnc2ccc(N3CCCC3c3cccc(F)c3)nn12` (centres unmarked) [X-226]: 0.165 µM and > 10 µM.
In the case of `CCOC(=O)c1cnc2ccc(N3C[C@@H](F)C[C@@H]3c3cccc(F)c3)nn12` [X-165, ethyl 6-((2R,4S)-4-fluoro-2-(3-fluorophenyl)pyrrolidin-1-yl)imidazo[1,2-b]pyridazine-3-carboxylate], the IC50 was 0.004 µM in assay [1] and > 10 µM with parental Ba/F3 cells.
The matching figures for `O=C(CCc1cccc(F)c1)c1cnc2ccc(N3CCC[C@@H]3c3cccc(F)c3)nn12` [X-127, (R)-3-(3-fluorophenyl)-1-(6-(2-(3-fluorophenyl)pyrrolidin-1-yl)imidazo[1,2-b]pyridazin-3-yl)propan-1-one]: 0.038 µM and > 10 µM.
The corresponding values for `CONC(=O)c1cnc2ccc(N3CCC[C@@H]3c3cccc(F)c3)nn12` [X-151] are 0.045 µM and > 10 µM.
The corresponding values for `O=C(N[C@H]1CCCC[C@@H]1CO)c1cnc2ccc(N3CCC[C@@H]3c3cccc(F)c3)nn12` [X-28] are 0.112 µM and > 10 µM.
Consider `O=C(NC(CO)(CO)CO)c1cnc2ccc(N3CCC[C@@H]3c3cccc(F)c3)nn12` [X-101], for which the results for the IC50 (in assay [1]; in the assay on parental Ba/F3 cells) were 0.452 µM and > 10 µM, respectively.
The corresponding values for `O=C(NC1CCS(=O)(=O)C1)c1cnc2ccc(N3CCC[C@@H]3c3cccc(F)c3)nn12` (some centres unmarked) [X-88] are 0.053 µM and > 10 µM.
The matching figures for `NC(=NO)c1cnc2ccc(N3CCC[C@@H]3c3cccc(F)c3)nn12` [X-227, (Z)-6-(2-(3-fluorophenyl)pyrrolidin-1-yl)-N′-hydroxyimidazo[1,2-b]pyridazine-3-carboximidamide]: 0.044 µM and > 10 µM.
The corresponding values for `CC(=O)OCC(=O)N1CCC(NC(=O)c2cnc3ccc(N4CCC[C@@H]4c4cccc(F)c4)nn23)CC1` [X-73, (R)-2-(4-(6-(2-(3-fluorophenyl)pyrrolidin-1-yl)imidazo[1,2-b]pyridazine-3-carboxamido)piperidin-1-yl)-2-oxoethyl acetate] are 0.109 µM and > 10 µM.
For `CC(C)S(=O)(=O)N1CC[C@H](NC(=O)c2cnc3ccc(N4CCC[C@@H]4c4cccc(F)c4)nn23)C1` [X-31], the IC50 in assay [1] is 0.124 µM; in the assay with parental Ba/F3 cells, > 10 µM.
The matching figures for `CC1(C)[C@H]2CC[C@@H](CNC(=O)c3cnc4ccc(N5CCC[C@@H]5c5cccc(F)c5)nn34)[C@@H]1C2` [X-110]: 0.207 µM and > 9.76 µM.
The matching figures for `CCNS(=O)(=O)c1cnc2ccc(N3CCC[C@@H]3c3cccc(F)c3)nn12` [X-237, (R)-N-ethyl-6-(2-(3-fluorophenyl)pyrrolidin-1-yl)imidazo[1,2-b]pyridazine-3-sulfonamide]: 3.32 µM and > 10 µM.
The corresponding values for `CC(C)CNC(=O)c1cnc2ccc(N3CCC[C@@H]3c3cccc(F)c3)nn12` [X-94] are 0.016 µM and > 10 µM.
`O=C(NC[C@H]1CCCO1)c1cnc2ccc(N3CCC[C@@H]3c3cccc(F)c3)nn12` [X-84]: the results for the IC50 (in assay [1]; with parental Ba/F3 cells) were 0.03 µM and > 10 µM, respectively.
The corresponding values for `NC(=O)c1cnc2ccc(N3CCCC[C@@H]3c3cccc(F)c3)nn12` [X-19] are 0.079 µM and > 10 µM.
The matching figures for `COC[C@H](C)NC(=O)c1cnc2ccc(N3CCC[C@@H]3c3cccc(F)c3)nn12` [X-54]: 0.053 µM and > 10 µM.
The corresponding values for `O=C(NCCC1CCCC1)c1cnc2ccc(N3CCC[C@@H]3c3cccc(F)c3)nn12` [X-108] are 0.191 µM and 6.48 µM.
For the molecule `O=C(C=Cc1cccc(F)c1)c1cnc2ccc(N3CCC[C@@H]3c3cccc(F)c3)nn12` [X-126, (R)-3-(3-fluorophenyl)-1-(6-(2-(3-fluorophenyl)pyrrolidin-1-yl)imidazo[1,2-b]pyridazin-3-yl)prop-2-en-1-one], the IC50 was found to be 0.022 µM in assay [1] and 1.09 µM in the assay on parental Ba/F3 cells.
The matching figures for `CC(C)OC(=O)Nc1cnc2ccc(N3CCC[C@@H]3c3cccc(F)c3)nn12` [X-234]: 0.449 µM and > 10 µM.
The corresponding values for `NC(=O)c1cnc2ccc(N3C[C@@H](F)C[C@@H]3c3cc(F)cc(F)c3)nn12` [X-241] are 0.003 µM and 6.7 µM.
In the case of `O=C(NCCN1CCOCC1)c1cnc2ccc(N3C[C@@H](F)C[C@@H]3c3cccc(F)c3)nn12` [X-113], the IC50 in assay [1] is 0.009 µM; in the assay with parental Ba/F3 cells, > 10 µM.
As to `Cn1cccc1/C=C/C(=O)c1cnc2ccc(N3CCC[C@@H]3c3cccc(F)c3)nn12` [X-130], the IC50 in assay [1] is 0.024 µM; with parental Ba/F3 cells it was > 10 µM.
The corresponding values for `COCCONC(=O)c1cnc2ccc(N3CCC[C@H]3c3cccc(F)c3)nn12` [X-148] are 0.028 µM and > 10 µM.
Take `CC(=O)N1CC(NC(=O)c2cnc3ccc(N4CCC[C@@H]4c4cccc(F)c4)nn23)C1` [X-64]: the IC50 is 0.832 µM in assay [1] and > 10 µM with parental Ba/F3 cells.
As for `O=C(NCCF)c1cnc2ccc(N3C[C@@H](F)C[C@@H]3c3cccc(F)c3)nn12` [X-112, 6-((2R,4S)-4-fluoro-2-(3-fluorophenyl)pyrrolidin-1-yl)-N-(2-fluoroethyl)imidazo[1,2-b]pyridazine-3-carboxamide], the IC50 with parental Ba/F3 cells is 5.45 µM.
